Laboratory results: patent publication US20210214375A1 (LUNDBECK LA JOLLA RESEARCH CENTER, INC., priority 2017, published 2021)

Columns and labels:
MGLL = biological target: T1, MGLL (Mus musculus, UniProt O35678); test: In vitro competitive activity-based protein profiling, mouse brain proteome; format: biochemical
T1 construct: Brain; from tissue; host or cells: mouse brain proteome
T1 sequence (O35678 1-303): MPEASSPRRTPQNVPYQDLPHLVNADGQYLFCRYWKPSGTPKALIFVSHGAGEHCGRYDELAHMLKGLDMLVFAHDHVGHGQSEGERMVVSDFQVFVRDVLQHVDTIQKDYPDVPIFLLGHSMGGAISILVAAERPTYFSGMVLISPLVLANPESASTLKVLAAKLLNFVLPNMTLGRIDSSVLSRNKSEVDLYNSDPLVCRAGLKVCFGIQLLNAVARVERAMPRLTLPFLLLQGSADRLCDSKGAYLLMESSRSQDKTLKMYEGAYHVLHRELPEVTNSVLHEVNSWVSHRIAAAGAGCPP
Protocol: [Worded in the source for another species; this species is reported under the same test.] (§1) Proteomes (human prefrontal cortex or cell membrane fractions) (50 μL, 1.0 mg/mL total protein concentration) were preincubated with varying concentrations of inhibitors at 37° C. After 30 min, FP—Rh or HT-01 (1.0 μL, 50 μM in DMSO) was added and the mixture was incubated for another 30 min at room temperature. Reactions were quenched with SDS loading buffer (15 μL-4×) and run on SDS-PAGE.

MAGL = biological target: T2, MAGL (Mus musculus, UniProt O35678); test: Mouse brain proteomes from inhibitor treated mice (oral gavage, brain proteomes analyzed 4 h after administration); format: in vivo, mouse (C57Bl/6J); conditions: brain proteome 4 h after administration, read-out: % Inh 5 mg/kg MGLL (Mouse)
T2 construct: from tissue; host or cells: brain of wild-type C57Bl/6J mice
T2 sequence (O35678 1-303): T1 sequence (O35678 1-303)
Protocol: Compounds are tested to assess their MAGL and serine hydrolase activity using the following in vitro and in vivo assays.
Preparation of Mouse Brain Proteomes from Inhibitor Treated Mice.
Inhibitors were administered to wild-type C57Bl/6J by oral gavage in a vehicle of polyethylene glycol. Each animal was sacrificed 4 h following administration and brain proteomes were prepared and analyzed according to previously established methods (See Niphakis, M. J., et al. (2011) ACS Chem. Neurosci. and Long, J. Z., et al. Nat. Chem. Biol. 5:37-44).

ABHD6 = biological target: T3, ABHD6 (Mus musculus, UniProt Q8R2Y0); test: In vitro competitive activity-based protein profiling, mouse brain proteome, ABHD6; format: biochemical; conditions: mouse
T3 construct: Brain; from tissue; host or cells: mouse brain proteome
T3 sequence (Q8R2Y0 1-336): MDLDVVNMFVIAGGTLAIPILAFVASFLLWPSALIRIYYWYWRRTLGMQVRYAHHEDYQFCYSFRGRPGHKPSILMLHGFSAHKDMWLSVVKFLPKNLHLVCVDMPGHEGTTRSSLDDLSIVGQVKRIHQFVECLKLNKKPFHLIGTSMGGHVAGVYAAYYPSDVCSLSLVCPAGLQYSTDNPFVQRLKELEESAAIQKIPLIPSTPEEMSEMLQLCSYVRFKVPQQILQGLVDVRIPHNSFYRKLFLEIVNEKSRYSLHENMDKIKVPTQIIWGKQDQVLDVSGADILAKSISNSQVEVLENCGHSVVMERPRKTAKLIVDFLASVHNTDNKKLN
Protocol: [Worded in the source for another target; this target is reported under the same test.] as §1

O=C(OC(C(F)(F)F)C(F)(F)F)N1CCC2(CC1)CN(Cc1c(Cl)cccc1N1CCOCC1)C2 [Example 46, 1,1,1,3,3,3-Hexafluoropropan-2-yl 2-(2-chloro-6-morpholinobenzyl)-2,7-diazaspiro[3.5]nonane-7-carboxylate]
IC50 (MGLL): < 100 nM | inhibition at 5 mg/kg (MAGL): ≥ 75% | IC50 (ABHD6): < 100 nM

CS(=O)(=O)N1CCN(c2cccc(C(F)(F)F)c2CN2CC3(CCN(C(=O)OC(C(F)(F)F)C(F)(F)F)CC3)C2)CC1 [Example 53, 1,1,1,3,3,3-Hexafluoropropan-2-yl 2-(2-(4-(methylsulfonyl)piperazin-1-yl)-6-(trifluoromethyl)benzyl)-2,7-diazaspiro[3.5]nonane-7-carboxylate]
IC50 (MGLL): < 100 nM | inhibition at 5 mg/kg (MAGL): ≥ 75% | IC50 (ABHD6): 100 to 1000 nM

O=C(OC(C(F)(F)F)C(F)(F)F)N1CCC2(CCN(Cc3ccc(Cl)cc3N3CCOCC3)CC2)C1 [Example 181, 1,1,1,3,3,3-Hexafluoropropan-2-yl 8-(4-chloro-2-molpholinobenzyl)-2,8-diazaspiro[4.5]decane-2-carboxylate]
IC50 (MGLL): < 100 nM | inhibition at 5 mg/kg (MAGL): ≥ 75% | IC50 (ABHD6): > 1000 nM

O=C(OC(C(F)(F)F)C(F)(F)F)N1CCC2(CC1)CN(Cc1c(Cl)cccc1N1CCN(C3CC3)CC1)C2 [Example 58, 1,1,1,3,3,3-Hexafluoropropan-2-yl 2-(2-chloro-6-(4-cyclopropylpiperazin-1-yl)benzyl)-2,7-diazaspiro[3.5]nonane-7-carboxylate]
IC50 (MGLL): < 100 nM | inhibition at 5 mg/kg (MAGL): ≥ 75% | IC50 (ABHD6): 100 to 1000 nM

CS(=O)(=O)N1CC2(CCN(c3cc(Cl)ccc3CN3CCN(C(=O)OC(C(F)(F)F)C(F)(F)F)CC3)C2)C1 [Example 175, 1,1,1,3,3,3-Hexafluoropropan-2-yl 4-(4-chloro-2-(2-(methylsulfonyl)-2,6-diazaspiro[3.4]octan-6-yl)benzyl)piperazine-1-carboxylate]
IC50 (MGLL): < 100 nM | inhibition at 5 mg/kg (MAGL): ≥ 75% | IC50 (ABHD6): > 1000 nM

O=C(OC(C(F)(F)F)C(F)(F)F)N1CCC2(CCN(Cc3ccc(Cl)cc3N3CCCCC3)CC2)C1 [Example 191, 1,1,1,3,3,3-Hexafluoropropan-2-yl 8-(4-chloro-2-(piperidin-1-yl)benzyl)-2,8-diazaspiro[4.5]decane-2-carboxylate]
IC50 (MGLL): < 100 nM | inhibition at 5 mg/kg (MAGL): ≥ 75% | IC50 (ABHD6): > 1000 nM

CCN1CCN(c2cccc(Cl)c2CN2CC3(CCN(C(=O)OC(C(F)(F)F)C(F)(F)F)CC3)C2)CC1 [Example 50, 1,1,1,3,3,3-Hexafluoropropan-2-yl 2-(2-chloro-6-(4-ethylpiperazin-1-yl)benzyl)-2,7-diazaspiro[3.5]nonane-7-carboxylate]
IC50 (MGLL): < 100 nM | inhibition at 5 mg/kg (MAGL): ≤ 25% | IC50 (ABHD6): 100 to 1000 nM

O=C(OC(C(F)(F)F)C(F)(F)F)N1CCC2(CCN(Cc3ccc(C(F)(F)F)cc3N3CCCCC3)CC2)C1 [Example 187, 1,1,1,3,3,3-Hexafluoropropan-2-yl 8-(2-(piperidin-1-yl)-4-(trifluoromethyl)benzyl)-2,8-diazaspiro[4.5]decane-2-carboxylate]
IC50 (MGLL): < 100 nM | inhibition at 5 mg/kg (MAGL): ≥ 75% | IC50 (ABHD6): > 1000 nM

CC(=O)N1CCN(c2cccc(Cl)c2CN2CC3(CCN(C(=O)OC(C(F)(F)F)C(F)(F)F)CC3)C2)CC1 [Example 49, 1,1,1,3,3,3-Hexafluoropropan-2-yl 2-(2-(4-acetylpiperazin-1-yl)-6-chlorobenzyl)-2,7-diazaspiro[3.5]nonane-7-carboxylate]
IC50 (MGLL): < 100 nM | inhibition at 5 mg/kg (MAGL): ≥ 75% | IC50 (ABHD6): < 100 nM

CC(=O)N1CCC2(CCN(c3ccccc3CN3CCN(C(=O)OC(C(F)(F)F)C(F)(F)F)CC3)C2)C1 (stereo not drawn) [Example 166, 1,1,1,3,3,3-Hexafluoropropan-2-yl 4-(2-(7-acetyl-2,7-diazaspiro[4.4]nonan-2-yl)benzyl)piperazine-1-carboxylate]
IC50 (MGLL): < 100 nM | inhibition at 5 mg/kg (MAGL): ≤ 25% | IC50 (ABHD6): > 1000 nM

O=C(OC(C(F)(F)F)C(F)(F)F)N1CCC2(CC1)CN(Cc1c(N3CC4COCC4C3)cccc1C(F)(F)F)C2 (stereo not drawn) [Example 32, 1,1,1,3,3,3-Hexafluoropropan-2-yl 2-(2-(tetrahydro-1H-furo[3,4-c]pyrrol-5(3H)-yl)-6-(trifluoromethyl)benzyl)-2,7-diazaspiro[3.5]nonane-7-carboxylate]
IC50 (MGLL): < 100 nM | inhibition at 5 mg/kg (MAGL): ≥ 75% | IC50 (ABHD6): > 1000 nM

CS(=O)(=O)N1CC2(CCN(c3cc(Cl)ccc3CN3CCN(C(=O)OC(C(F)(F)F)C(F)(F)F)CC3)CC2)C1 [Example 212, 1,1,1,3,3,3-Hexafluoropropan-2-yl 4-(4-chloro-2-(2-(methylsulfonyl)-2,7-diazaspiro[3.5]nonan-7-yl)benzyl)piperazine-1-carboxylate]
IC50 (MGLL): < 100 nM | inhibition at 5 mg/kg (MAGL): ≥ 75% | IC50 (ABHD6): > 1000 nM

O=C(OC(C(F)(F)F)C(F)(F)F)N1CCC2(CC1)CN(Cc1c(Cl)cccc1N1CCCCC1)C2 [Example 45, 1,1,1,3,3,3-Hexafluoropropan-2-yl 2-(2-chloro-6-(piperidin-1-yl)benzyl)-2,7-diazaspiro[3.5]nonane-7-carboxylate]
IC50 (MGLL): < 100 nM | inhibition at 5 mg/kg (MAGL): ≥ 75% | IC50 (ABHD6): < 100 nM

O=C(OC(C(F)(F)F)C(F)(F)F)N1CCC2(CCN(Cc3ccc(Cl)cc3N3CCC(F)CC3)CC2)C1 [Example 28, 1,1,1,3,3,3-Hexafluoropropan-2-yl 8-(4-chloro-2-(4-fluoropiperidin-1-yl)benzyl)-2,8-diazaspiro[4.5]decane-2-carboxylate]
IC50 (MGLL): < 100 nM | inhibition at 5 mg/kg (MAGL): ≥ 75% | IC50 (ABHD6): > 1000 nM

CC(=O)N1CCC2(CC1)CN(c1cc(Cl)ccc1CN1CCN(C(=O)OC(C(F)(F)F)C(F)(F)F)CC1)C2 [Example 198, 1,1,1,3,3,3-Hexafluoropropan-2-yl 4-(2-(7-acetyl-2,7-diazaspiro[3.5]nonan-2-yl)-4-chlorobenzyl)piperazine-1-carboxylate]
IC50 (MGLL): < 100 nM | inhibition at 5 mg/kg (MAGL): ≥ 75% | IC50 (ABHD6): > 1000 nM

CS(=O)(=O)N1CCC2(CCN(c3cccc(Cl)c3CN3CC4(CCN(C(=O)OC(C(F)(F)F)C(F)(F)F)CC4)C3)CC2)C1 [Example 61, 1,1,1,3,3,3-Hexafluoropropan-2-yl 2-(2-chloro-6-(2-(methylsulfonyl)-2,8-diazaspiro[4.5]decan-8-yl)benzyl)-2,7-diazaspiro[3.5]nonane-7-carboxylate]
IC50 (MGLL): < 100 nM | inhibition at 5 mg/kg (MAGL): 25 to 75% | IC50 (ABHD6): 100 to 1000 nM

CS(=O)(=O)N1CCN(c2cccc(Cl)c2CN2CC3(CCN(C(=O)OC(C(F)(F)F)C(F)(F)F)CC3)C2)CC1 [Example 44, 1,1,1,3,3,3-Hexafluoropropan-2-yl 2-(2-chloro-6-(4-(methylsulfonyl)piperazin-1-yl)benzyl)-2,7-diazaspiro[3.5]nonane-7-carboxylate]
IC50 (MGLL): < 100 nM | inhibition at 5 mg/kg (MAGL): ≥ 75% | IC50 (ABHD6): < 100 nM

CC(=O)N1CCC2(CC1)CN(c1cc(C(F)(F)F)ccc1CN1CCN(C(=O)OC(C(F)(F)F)C(F)(F)F)CC1)C2 [Example 199, 1,1,1,3,3,3-Hexafluoropropan-2-yl 4-(2-(7-acetyl-2,7-diazaspiro[3.5]nonan-2-yl)-4-(trifluoromethyl)benzyl)piperazine-1-carboxylate]
IC50 (MGLL): < 100 nM | inhibition at 5 mg/kg (MAGL): ≥ 75% | IC50 (ABHD6): > 1000 nM
